Reference: patent US10004701B2, “Methods and compositions for treating infection” (UNIVERSITY OF ROCHESTER, priority 2012, dated 2018)
Counter-ions that a name gives are not always drawn. Like-named read-outs stand apart in the source and are kept apart here.

Assays:
Test in all cases: AK assay 384-well format, Prestwick library screening
[1] = system: P. aeruginosa; type: cell-based, Pseudomonas aeruginosa; details: for fold induction at 50 µM: Pseudomonas aeruginosa, 3 h
[2] = system: E. cloacae; type: cell-based, Enterobacter cloacae; details: for fold induction at 50 µM: Enterobacter cloacae, 3 h
[3] = system: E. coli; type: cell-based, Escherichia coli; details: 50 μM final drug concentration; for fold induction at 50 µM: Escherichia coli, 3 h
[4] = system: E. faecium; type: cell-based, Enterococcus faecium; details: for fold induction at 50 µM: Enterococcus faecium, 3 h
[5] = system: A. baumannii strain 98-37-09; type: cell-based, Acinetobacter baumannii; details: for fold induction at 50 µM: Acinetobacter baumannii, 983709, 3 h
[6] = system: S. aureus strain USA300-0114; type: cell-based, Staphylococcus aureus; details: for fold induction at 50 µM: Staphylococcus aureus, USA300, 3 h
[7] = system: K. pneumoniae; type: cell-based, Klebsiella pneumoniae; details: for fold induction at 50 µM: Klebsiella pneumoniae, 3 h
[8] = 50 μM final drug concentration, cutoff for positive-scoring molecules 3-fold increase, read-out: AK-based Prestwick Library Screening Results, P. aeruginosa (fold increase in extracellular AK activity)
[9] = 50 μM final drug concentration, cutoff for positive-scoring molecules 3-fold increase, read-out: AK-based Prestwick Library Screening Results, E. cloacae (fold increase in extracellular AK activity)
[10] = cutoff for positive-scoring molecules 3-fold increase, read-out: AK-based Prestwick Library Screening Results, E. coli (fold increase in extracellular AK activity)
[11] = 50 μM final drug concentration, cutoff for positive-scoring molecules 3-fold increase, read-out: AK-based Prestwick Library Screening Results, E. faecium (fold increase in extracellular AK activity)
[12] = 50 μM final drug concentration, cutoff for positive-scoring molecules 3-fold increase, read-out: AK-based Prestwick Library Screening Results, A. baumannii (fold increase in extracellular AK activity)
[13] = 50 μM final drug concentration, cutoff for positive-scoring molecules 3-fold increase, read-out: AK-based Prestwick Library Screening Results, S. aureus (fold increase in extracellular AK activity)
[14] = 50 μM final drug concentration, cutoff for positive-scoring molecules 3-fold increase, read-out: AK-based Prestwick Library Screening Results, K. pneumoniae (fold increase in extracellular AK activity)
[15] = 50 μM final drug concentration, planktonic, cutoff for positive-scoring molecules 3-fold increase, read-out: AK-based Prestwick Library Screening Results, P. aeruginosa (fold increase in extracellular AK activity)
[16] = 50 μM final drug concentration, planktonic, cutoff for positive-scoring molecules 3-fold increase, read-out: AK-based Prestwick Library Screening Results, E. cloacae (fold increase in extracellular AK activity)
[17] = planktonic, cutoff for positive-scoring molecules 3-fold increase, read-out: AK-based Prestwick Library Screening Results, E. coli (fold increase in extracellular AK activity)
[18] = 50 μM final drug concentration, planktonic, cutoff for positive-scoring molecules 3-fold increase, read-out: AK-based Prestwick Library Screening Results, E. faecium (fold increase in extracellular AK activity)
[19] = 50 μM final drug concentration, planktonic, cutoff for positive-scoring molecules 3-fold increase, read-out: AK-based Prestwick Library Screening Results, A. baumannii (fold increase in extracellular AK activity)
[20] = 50 μM final drug concentration, planktonic, cutoff for positive-scoring molecules 3-fold increase, read-out: AK-based Prestwick Library Screening Results, S. aureus (fold increase in extracellular AK activity)
[21] = 50 μM final drug concentration, planktonic, cutoff for positive-scoring molecules 3-fold increase, read-out: AK-based Prestwick Library Screening Results, K. pneumoniae (fold increase in extracellular AK activity)
[22] = planktonic E. coli, positive cutoff 3-fold increase, read-out: AK-based Prestwick library screening result, E. coli (fold increase in extracellular AK activity)
[23] = 50 μM final drug concentration, planktonic, cutoff for positive 3-fold increase, read-out: AK-based Prestwick Library Screening Results, P. aeruginosa (fold increase in extracellular AK activity)
[24] = 50 μM final drug concentration, planktonic, cutoff for positive 3-fold increase, read-out: AK-based Prestwick Library Screening Results, E. cloacae (fold increase in extracellular AK activity)
[25] = planktonic, cutoff for positive 3-fold increase, read-out: AK-based Prestwick Library Screening Results, E. coli (fold increase in extracellular AK activity)
[26] = 50 μM final drug concentration, planktonic, cutoff for positive 3-fold increase, read-out: AK-based Prestwick Library Screening Results, E. faecium (fold increase in extracellular AK activity)
[27] = 50 μM final drug concentration, planktonic, cutoff for positive 3-fold increase, read-out: AK-based Prestwick Library Screening Results, A. baumannii (fold increase in extracellular AK activity)
[28] = 50 μM final drug concentration, planktonic, cutoff for positive 3-fold increase, read-out: AK-based Prestwick Library Screening Results, S. aureus (fold increase in extracellular AK activity)
[29] = 50 μM final drug concentration, planktonic, cutoff for positive 3-fold increase, read-out: AK-based Prestwick Library Screening Results, K. pneumoniae (fold increase in extracellular AK activity)
[30] = 50 μM final drug concentration, planktonic, […]

SMILES: CC(=O)c1ccc2c(c1)N(CCCN1CCC(CCO)CC1)c1ccccc1S2 [Piperacetazine]
- fold induction at 50 µM [1, 8]: 0.5
- fold induction at 50 µM [2, 9]: 0.4
- fold induction at 50 µM [3, 10]: 0.5
- fold induction at 50 µM [4, 11]: 0.9
- fold induction at 50 µM [5, 12]: 0.6
- fold induction at 50 µM [6, 13]: 0.5
- fold induction at 50 µM [7, 14]: 0.5

SMILES: CCN1CCN(C(=O)N[C@@H](C(=O)N[C@@H]2C(=O)N3[C@@H]2SC(C)(C)[C@@H]3C(=O)O)c2ccccc2)C(=O)C1=O [Piperacillin sodium salt]
- fold induction at 50 µM [1, 15]: 8.7
- fold induction at 50 µM [2, 16]: 1.3
- fold induction at 50 µM [3, 17]: 12.6
- fold induction at 50 µM [4, 18]: 0.9
- fold induction at 50 µM [5, 19]: 3.3
- fold induction at 50 µM [6, 20]: 0.4
- fold induction at 50 µM [7, 21]: 2.3

SMILES: CCN1CCCC(OC(=O)C(c2ccccc2)c2ccccc2)C1 (centres unmarked) [Piperidolate hydrochloride]
- fold induction at 50 µM ([1]; read-out: AK-based Prestwick library screening result, P. aeruginosa (fold increase in extracellular AK activity)): 0.7
- fold induction at 50 µM ([2]; read-out: AK-based Prestwick library screening result, E. cloacae (fold increase in extracellular AK activity)): 0.7
- fold induction at 50 µM [3, 22]: 0.7
- fold induction at 50 µM ([4]; read-out: AK-based Prestwick library screening result, E. faecium (fold increase in extracellular AK activity)): 1
- fold induction at 50 µM ([5]; read-out: AK-based Prestwick library screening result, A. baumannii (fold increase in extracellular AK activity)): 0.6
- fold induction at 50 µM ([6]; read-out: AK-based Prestwick library screening result, S. aureus (fold increase in extracellular AK activity)): 0.6
- fold induction at 50 µM ([7]; read-out: AK-based Prestwick library screening result, K. pneumoniae (fold increase in extracellular AK activity)): 0.6

SMILES: O=C(/C=C/C=C/c1ccc2c(c1)OCO2)N1CCCCC1 [Piperine]
- fold induction at 50 µM [1, 23]: 0.4
- fold induction at 50 µM [2, 24]: 1.6
- fold induction at 50 µM [3, 25]: 0.4
- fold induction at 50 µM [4, 26]: 0.3
- fold induction at 50 µM [5, 27]: 0.4
- fold induction at 50 µM [6, 28]: 0.2
- fold induction at 50 µM [7, 29]: 0.3

SMILES: COc1cc(/C=C/C(=O)N2CCC=CC2=O)cc(OC)c1OC [Piperlongumine]
- AK-based Prestwick Library Screening Results, P. aeruginosa (fold increase in extracellular AK activity) [1, 30]: 1.1
- AK-based Prestwick Library Screening Results, E. cloacae (fold increase in extracellular AK activity) [2, 30]: 1.6
- AK-based Prestwick Library Screening Results, E. coli (fold increase in extracellular AK activity) ([3]; planktonic, […]): 1.2
- AK-based Prestwick Library Screening Results, E. faecium (fold increase in extracellular AK activity) [4, 30]: 1.0
- AK-based Prestwick Library Screening Results, A. baumannii (fold increase in extracellular AK activity) [5, 30]: 1.0
- AK-based Prestwick Library Screening Results, S. aureus (fold increase in extracellular AK activity) [6, 30]: 1.0
- AK-based Prestwick Library Screening Results, K. pneumoniae (fold increase in extracellular AK activity) [7, 30]: 1.0

SMILES: NC(=O)CN1CCCC1=O [Piracetam]
- fold induction at 50 µM [1, 23]: 1.1
- fold induction at 50 µM [2, 24]: 1.4
- fold induction at 50 µM [3, 25]: 1.1
- fold induction at 50 µM [4, 26]: 0.9
- fold induction at 50 µM [5, 27]: 0.9
- fold induction at 50 µM [6, 28]: 1
- fold induction at 50 µM [7, 29]: 1

SMILES: Cc1nc2ccccn2c(=O)c1CCN1CCC(C(=O)c2ccc(F)cc2)CC1 [Pirenperone]
- fold induction at 50 µM [1, 23]: 1.2
- fold induction at 50 µM [2, 24]: 1.5
- fold induction at 50 µM [3, 25]: 1.1
- fold induction at 50 µM [4, 26]: 1.1
- fold induction at 50 µM [5, 27]: 1.2
- fold induction at 50 µM [6, 28]: 1.1
- fold induction at 50 µM [7, 29]: 1

SMILES: CN1CCN(CC(=O)N2c3ccccc3C(=O)Nc3cccnc32)CC1 [Pirenzepine dihydrochloride]
- fold induction at 50 µM ([1]; 50 μM final drug concentration, 384-well format, cutoff for positive-scoring molecules 3-fold increase, read-out: AK-based Prestwick Library Screening Results, P. aeruginosa (increase in extracellular AK activity)): 1
- fold induction at 50 µM ([2]; 50 μM final drug concentration, 384-well format, cutoff for positive-scoring molecules 3-fold increase, read-out: AK-based Prestwick Library Screening Results, E. cloacae (increase in extracellular AK activity)): 1.4
- fold induction at 50 µM ([3]; 384-well format, cutoff for positive-scoring molecules 3-fold increase, read-out: AK-based Prestwick Library Screening Results, E. coli (increase in extracellular AK activity)): 1.4
- fold induction at 50 µM ([4]; 50 μM final drug concentration, 384-well format, cutoff for positive-scoring molecules 3-fold increase, read-out: AK-based Prestwick Library Screening Results, E. faecium (increase in extracellular AK activity)): 1.1
- fold induction at 50 µM ([5]; 50 μM final drug concentration, 384-well format, cutoff for positive-scoring molecules 3-fold increase, read-out: AK-based Prestwick Library Screening Results, A. baumannii (increase in extracellular AK activity)): 1.1
- fold induction at 50 µM ([6]; 50 μM final drug concentration, 384-well format, cutoff for positive-scoring molecules 3-fold increase, read-out: AK-based Prestwick Library Screening Results, S. aureus (increase in extracellular AK activity)): 1
- fold induction at 50 µM ([7]; 50 μM final drug concentration, 384-well format, cutoff for positive-scoring molecules 3-fold increase, read-out: AK-based Prestwick Library Screening Results, K. pneumoniae (increase in extracellular AK activity)): 1

SMILES: NS(=O)(=O)c1cc(C(=O)O)cc(N2CCCC2)c1Oc1ccccc1 [Piretanide]
- fold induction at 50 µM [1, 8]: 0.4
- fold induction at 50 µM [2, 9]: 0.4
- fold induction at 50 µM [3, 10]: 0.5
- fold induction at 50 µM [4, 11]: 0.8
- fold induction at 50 µM [5, 12]: 0.4
- fold induction at 50 µM [6, 13]: 0.4
- fold induction at 50 µM [7, 14]: 0.5

SMILES: c1cnc(N2CCN(Cc3ccc4c(c3)OCO4)CC2)nc1 [Piribedil hydrochloride]
- fold induction at 50 µM ([1]; planktonic P. aeruginosa, 50 μM final drug concentration, positive cutoff 3-fold increase, read-out: AK-based Prestwick library screening result, P. aeruginosa (fold increase in extracellular AK activity)): 0.6
- fold induction at 50 µM ([2]; planktonic E. cloacae, 50 μM final drug concentration, positive cutoff 3-fold increase, read-out: AK-based Prestwick library screening result, E. cloacae (fold increase in extracellular AK activity)): 1
- fold induction at 50 µM [3, 22]: 0.6
- fold induction at 50 µM ([4]; planktonic E. faecium, 50 μM final drug concentration, positive cutoff 3-fold increase, read-out: AK-based Prestwick library screening result, E. faecium (fold increase in extracellular AK activity)): 0.9
- fold induction at 50 µM ([5]; planktonic A. baumannii, 50 μM final drug concentration, positive cutoff 3-fold increase, read-out: AK-based Prestwick library screening result, A. baumannii (fold increase in extracellular AK activity)): 0.7
- fold induction at 50 µM ([6]; planktonic S. aureus, 50 μM final drug concentration, positive cutoff 3-fold increase, read-out: AK-based Prestwick library screening result, S. aureus (fold increase in extracellular AK activity)): 0.6
- fold induction at 50 µM ([7]; planktonic K. pneumoniae, 50 μM final drug concentration, positive cutoff 3-fold increase, read-out: AK-based Prestwick library screening result, K. pneumoniae (fold increase in extracellular AK activity)): 0.5

SMILES: CCn1cc(C(=O)O)c(=O)c2cnc(N3CCCC3)nc21 [Piromidic acid]
- fold induction at 50 µM [1, 15]: 0.5
- fold induction at 50 µM [2, 16]: 0.6
- fold induction at 50 µM [3, 17]: 0.6
- fold induction at 50 µM [4, 18]: 0.9
- fold induction at 50 µM [5, 19]: 0.5
- fold induction at 50 µM [6, 20]: 0.7
- fold induction at 50 µM [7, 21]: 0.6
